Test results from patent US20140303092A1 (CHIMERIX, INC., priority 2011, published 2014).

Test: Study HDP-CDV-201: safety and tolerability (adverse events, laboratory abnormalities, discontinuations)
Format: in vivo, human (adult allogeneic HSCT recipients)
Description: Clinical Studies of HDP-CDV were performed and described in detail in the following Examples. For example, HDP-CDV-201 is a placebo-controlled, dose-escalating trial in HSCT CMV (R+) recipients, evaluating the ability of HDP-CDV to prevent or control CMV infection was carried out. Five cohorts were established in which participants or subjects received either placebo or the HDP-CDV orally, in doses ranging from 40 mg weekly (QW) to 200 mg twice weekly (BIW). Subjects who were post-HSCT were enrolled at the time of engraftment and randomized to HDP-CDV or placebo (3 to 1 ratio) and received blinded therapy until approximately 100 day post-transplantation. HDP-CDV doses were 40 mg QW, 100 mg QW, 200 mg QW, 200 mg BIW and 100 mg BIW. Escalation to the next dose was decided by the data monitoring committee after review of the safety data from the previous Cohort. Subjects who developed CMV disease or CMV infection requiring pre-emptive therapy with local standard of care were discontinued from blinded therapy and followed for 4 weeks. Subjects who completed treatment with blinded therapy were followed for 8 weeks post-therapy.
Data from Study HDP-CDV-201 also provided characterization of the safety and tolerability profile of HDP-CDV when administered for the prevention or control of CMV infection in high risk (R^+) post-HSCT adult subjects.
The Safety population (SAFETY) included all randomized subjects who took at least one dose of study treatment. This population was used to summarize safety outcomes based on the treatment actually received, in cases where a subject was treated contrary to the randomization schedule.
The safety and tolerability profile of HDP-CDV, including subject demographics and Baseline characteristics; the AE profile; and laboratory abnormalities of interest were analyzed in the cohorts followed in this investigation.
Subjects completing the treatment period received a full course of study medication; those completing the entire study attended visits through 8 weeks of follow up. Subjects who discontinued treatment may have done so for protocol specified reasons (e.g. development of clinically significant CMV infection requiring preemptive treatment with excluded anti-CMV medications) or for other reasons (e.g., withdrawal, adverse events, loss to follow-up). The disposition of subjects in Study HDP-CDV-201 during the double-blind, placebo-controlled treatment period (through Week 11) is listed by dosing Cohort in TABLE 23.
Adverse events were examined by severity to ensure that all safety signals were identified in this study population. Because of the frequency of events in HSCT recipients, particular attention was given to evaluation of Grade 3 […], 4 (severe), and 5 (fatal) adverse events.
Only those preferred terms for which at least one Grade 3 or higher event was experienced in any treatment group are listed. Cytomegalovirus-related AEs are excluded from this analysis.
HDP-CDV is a lipid conjugate of CDV. Because CDV is known to have adverse effects on renal function and bone marrow, decreased GFR and persistent neutropenia were identified as AEs of special interest. Key renal and hematological (TABLE 30) laboratory parameters were measured and listed below by Study HDP-CDV-201 treatment groups. TABLE 30 includes abnormal levels of serum creatinine, neutrophils, platelets, WBCs, and hemoglobin and includes data at Screening and during the treatment period.
A common metric for unit based dosing of medications is by weight (mg/kg). When the distribution of weights was examined for all subjects participating in the study, the median was 78 kg and the lower 25th percentile weight was approximately 65 kg, which translates to a cut-off of ˜3 mg/kg for a 200 mg total weekly dose. Based upon this approach, a cut-off of 3 mg/kg was used to assess the frequency of diarrhea and associated GI AEs reported for the subjects in Cohorts 3 or 4a (TABLE 40).

[1] = Cohort 1, 40 mg QW, through Week 11

CCCCCCCCCCCCCCCCOCCCOP(=O)(O)COC(CO)Cn1ccc(N)nc1=O (stereo not drawn) [HDP-CDV]
Gastrointestinal AE Abdominal discomfort, subjects (Cohort 1, 40 mg QW): 0
Gastrointestinal AE Abdominal distention, subjects (Cohort 1, 40 mg QW): 2 (8.0%)
Gastrointestinal AE Abdominal pain upper, subjects (Cohort 1, 40 mg QW): 1 (4.0%)
Gastrointestinal AE Abdominal pain, subjects (Cohort 1, 40 mg QW): 4 (16.0%)
Gastrointestinal AE Constipation, subjects (Cohort 1, 40 mg QW): 1 (4.0%)
Gastrointestinal AE Diarrhoea, subjects (Cohort 1, 40 mg QW): 3 (12.0%)
Gastrointestinal AE Diverticulum intestinal haemorragic, subjects (Cohort 1, 40 mg QW): 0
Gastrointestinal AE Dyspepsia, subjects (Cohort 1, 40 mg QW): 3 (12.0%)
Gastrointestinal AE Dysphagia, subjects (Cohort 1, 40 mg QW): 0
Gastrointestinal AE Epigastric discomfort, subjects (Cohort 1, 40 mg QW): 1 (4.0%)
Gastrointestinal AE Flatulence, subjects (Cohort 1, 40 mg QW): 0
Gastrointestinal AE GERD, subjects (Cohort 1, 40 mg QW): 2 (8.0%)
Gastrointestinal AE Gastritis, subjects (Cohort 1, 40 mg QW): 0
Gastrointestinal AE Haematochezia, subjects (Cohort 1, 40 mg QW): 1 (4.0%)
Gastrointestinal AE Haemorroids, subjects (Cohort 1, 40 mg QW): 1 (4.0%)
Gastrointestinal AE Large intestinal ulcer, subjects (Cohort 1, 40 mg QW): 1 (4.0%)
Gastrointestinal AE Nausea, subjects (Cohort 1, 40 mg QW): 6 (24.0%)
Gastrointestinal AE Odynophagia, subjects (Cohort 1, 40 mg QW): 0
Gastrointestinal AE Oesophagitis, subjects (Cohort 1, 40 mg QW): 1 (4.0%)
Gastrointestinal AE Retching, subjects (Cohort 1, 40 mg QW): 0
Gastrointestinal AE Vomiting, subjects (Cohort 1, 40 mg QW): 2 (8.0%)
Hepatobiliary clinical AE Cholelithiasis, subjects (Cohort 1, 40 mg QW): 1 (4.0%)
Hepatobiliary clinical AE Hepatomegaly, subjects (Cohort 1, 40 mg QW): 0
Hepatobiliary clinical AE Hyperbilirubinaemia, subjects (Cohort 1, 40 mg QW): 1 (4.0%)
Hepatobiliary clinical AE Jaundice, subjects (Cohort 1, 40 mg QW): 0
Hepatobiliary clinical AE Liver injury, subjects (Cohort 1, 40 mg QW): 0
Intensity of Gastrointestinal AEs, Grade 1, subjects (Cohort 1, 40 mg QW): 9 (36.0%)
Intensity of Gastrointestinal AEs, Grade 2, subjects (Cohort 1, 40 mg QW): 6 (24.0%)
Intensity of Gastrointestinal AEs, Grade 3, subjects (Cohort 1, 40 mg QW): 2 (8.0%)
Intensity of Gastrointestinal AEs, Grade 4, subjects (Cohort 1, 40 mg QW): 0
Intensity of Gastrointestinal AEs, Grade 5, subjects (Cohort 1, 40 mg QW): 0
Serum ALT level, Median fold increase from Baseline at Follow-up Week 1 (Cohort 1, 40 mg QW): 1.50 fold
Serum ALT level, Median fold increase from Baseline at Follow-up Week 4 (Cohort 1, 40 mg QW): 1.00 fold
Serum ALT level, Peak Median fold increase from Baseline (Cohort 1, 40 mg QW): 1.80 fold
Subjects completed study (Cohort 1, 40 mg QW): 7 (28.0%) n (%)
Total Bilirubin (Screening) >1-[…] ULN, subjects (Cohort 1, 40 mg QW): 1 (4.0%)
Total Bilirubin (Screening) >1.5-3 × ULN, subjects (Cohort 1, 40 mg QW): 3 (12.0%)
Total Bilirubin (Screening) >3-10 × ULN, subjects (Cohort 1, 40 mg QW): 0
Total Bilirubin (Screening) >10 × ULN, subjects (Cohort 1, 40 mg QW): 0
Total Bilirubin (any time during therapy) >1-[…] ULN, subjects (Cohort 1, 40 mg QW): 3 (13.0%)
Total Bilirubin (any time during therapy) >1.5-3 × ULN, subjects (Cohort 1, 40 mg QW): 1 (4.3%)
Total Bilirubin (any time during therapy) >3-10 × ULN, subjects (Cohort 1, 40 mg QW): 0
Total Bilirubin (any time during therapy) >10 × ULN, subjects (Cohort 1, 40 mg QW): 0
Abdominal pain leading to study drug withdrawal (Cohort 1, 40 mg QW, N = 25): 0%
All AEs leading to withdrawal (Cohort 1, 40 mg QW, N = 25): 15 (60.0%)
Diarrhoea leading to study drug withdrawal (Cohort 1, 40 mg QW, N = 25): 0%
Dyspepsia leading to study drug withdrawal (Cohort 1, 40 mg QW, N = 25): 0%
Nausea leading to study drug withdrawal (Cohort 1, 40 mg QW, N = 25): 0%
TEAE ALT increased (Cohort 1, 40 mg QW, N = 25): 2 (8.0%) n (%)
TEAE AST increased (Cohort 1, 40 mg QW, N = 25): 1 (4.0%) n (%)
TEAE Abdominal pain (Cohort 1, 40 mg QW, N = 25): 4 (16.0%) n (%)
TEAE Abdominal pain, Upper (Cohort 1, 40 mg QW, N = 25): 1 (4.0%) n (%)
TEAE Acute GVHD (Cohort 1, 40 mg QW, N = 25): 6 (24.0%) n (%)
TEAE Acute Myeloid Leukemia recurrent (Cohort 1, 40 mg QW, N = 25): 3 (12.0%) n (%)
TEAE Acute Renal Failure (Cohort 1, 40 mg QW, N = 25): 2 (8.0%) n (%)
TEAE Anxiety (Cohort 1, 40 mg QW, N = 25): 0 n (%)
TEAE Arthralgias (Cohort 1, 40 mg QW, N = 25): 0 n (%)
TEAE Back Pain (Cohort 1, 40 mg QW, N = 25): 0 n (%)
TEAE Blood lactate dehydrogenase increased (Cohort 1, 40 mg QW, N = 25): 0 n (%)
TEAE Creatinine increased (Cohort 1, 40 mg QW, N = 25): 0 n (%)
TEAE Cytomegalovirus viremia (Cohort 1, 40 mg QW, N = 25): 10 (40.0%) n (%)
TEAE Decreased appetite (Cohort 1, 40 mg QW, N = 25): 4 (16.0%) n (%)
TEAE Diarrhoea (Cohort 1, 40 mg QW, N = 25): 3 (12.0%) n (%)
TEAE Dysgeusia (Cohort 1, 40 mg QW, N = 25): 1 (4.0%) n (%)
TEAE Fatigue (Cohort 1, 40 mg QW, N = 25): 1 (4.0%) n (%)
TEAE GI Reflux Disease (Cohort 1, 40 mg QW, N = 25): 2 (8.0%) n (%)
TEAE Gamma-glutamyltransferase increased (Cohort 1, 40 mg QW, N = 25): 0 n (%)
TEAE Generalized oedema (Cohort 1, 40 mg QW, N = 25): 1 (4.0%) n (%)
TEAE Hyperbilirubinaemia (Cohort 1, 40 mg QW, N = 25): 1 (4.0%) n (%)
TEAE Hyperglycaemia (Cohort 1, 40 mg QW, N = 25): 1 (4.0%) n (%)
TEAE Hyperkalemia (Cohort 1, 40 mg QW, N = 25): 1 (4.0%) n (%)
TEAE Hypocalcaemia (Cohort 1, 40 mg QW, N = 25): 1 (4.0%) n (%)
TEAE Hypokalaemia (Cohort 1, 40 mg QW, N = 25): 4 (16.0%) n (%)
TEAE Hyponatraemia (Cohort 1, 40 mg QW, N = 25): 3 (12.0%) n (%)
TEAE Increased leukocytosis (Cohort 1, 40 mg QW, N = 25): 1 (4.0%) n (%)
TEAE Insomnia (Cohort 1, 40 mg QW, N = 25): 2 (8.0%) n (%)
TEAE Liver function test abnormal (Cohort 1, 40 mg QW, N = 25): 0 n (%)
TEAE Malnutrition (Cohort 1, 40 mg QW, N = 25): 0 n (%)
TEAE Nausea (Cohort 1, 40 mg QW, N = 25): 6 (24.0%) n (%)
TEAE Neutropenia (Cohort 1, 40 mg QW, N = 25): 2 (8.0%) n (%)
TEAE Oedema peripheral (Cohort 1, 40 mg QW, N = 25): 3 (12.0%) n (%)
TEAE Oral Candidiasis (Cohort 1, 40 mg QW, N = 25): 0 n (%)
TEAE Pneumonia (Cohort 1, 40 mg QW, N = 25): 1 (4.0%) n (%)
TEAE Pyrexia (Cohort 1, 40 mg QW, N = 25): 1 (4.0%) n (%)
TEAE Recurrent flatulence (Cohort 1, 40 mg QW, N = 25): 0 n (%)
TEAE Renal Failure (Cohort 1, 40 mg QW, N = 25): 1 (4.0%) n (%)
TEAE Staphylococcal Bacteremia (Cohort 1, 40 mg QW, N = 25): 0 n (%)
TEAE Thrombocytopenia (Cohort 1, 40 mg QW, N = 25): 3 (12.0%) n (%)
TEAE Tremor (Cohort 1, 40 mg QW, N = 25): 3 (12.0%) n (%)
TEAE Vomiting (Cohort 1, 40 mg QW, N = 25): 2 (8.0%) n (%)
Vomiting leading to study drug withdrawal (Cohort 1, 40 mg QW, N = 25): 0%
All AEs, Grade 5 (deaths) (Cohort 1, 40 mg QW, N = 25, entire study duration): 2 (8.0%)
Subjects completed treatment [1]: 9 (36.0%) n (%)
Subjects who permanently discontinued treatment [1]: 16 (64.0%) n (%)
subjects discontinued due to neutropenia (Cohort 2): 1 subject(s)
ALT (Screening) >3 × ULN-5 × ULN, subjects (Cohort 2, 100 mg QW): 0
ALT (Screening) >5 × ULN-10 × ULN, subjects (Cohort 2, 100 mg QW): 0
ALT (Screening) >10 × ULN-20 × ULN, subjects (Cohort 2, 100 mg QW): 0
ALT (Screening) >20 × ULN, subjects (Cohort 2, 100 mg QW): 0
ALT (any time during therapy) >3 × ULN-5 × ULN, subjects (Cohort 2, 100 mg QW): 1 (3.7%)
ALT (any time during therapy) >5 × ULN-10 × ULN, subjects (Cohort 2, 100 mg QW): 0
ALT (any time during therapy) >10 × ULN-20 × ULN, subjects (Cohort 2, 100 mg QW): 1 (3.7%)
ALT (any time during therapy) >20 × ULN, subjects (Cohort 2, 100 mg QW): 0
AST (Screening) >3 × ULN-5 × ULN, subjects (Cohort 2, 100 mg QW): 0
AST (Screening) >5 × ULN-10 × ULN, subjects (Cohort 2, 100 mg QW): 0
AST (Screening) >10 × ULN-20 × ULN, subjects (Cohort 2, 100 mg QW): 0
AST (Screening) >20 × ULN, subjects (Cohort 2, 100 mg QW): 0
AST (any time during therapy) >3 × ULN-5 × ULN, subjects (Cohort 2, 100 mg QW): 1 (3.7%)
AST (any time during therapy) >5 × ULN-10 × ULN, subjects (Cohort 2, 100 mg QW): 0
AST (any time during therapy) >10 × ULN-20 × ULN, subjects (Cohort 2, 100 mg QW): 0
AST (any time during therapy) >20 × ULN, subjects (Cohort 2, 100 mg QW): 0
